Source: patent publication US12209102B2, “Heterocyclic compounds and uses thereof” (Kumquat Biosciences Inc., priority 2022, dated 2025)

Assays:
K-Ras G12D = molecular target: T1, K-Ras G12D (Homo sapiens, UniProt P01116, G12D); assay: HTRF resonance energy transfer assay, K-Ras G12D / SOS1 interaction; assay type: biochemical; settings: HTRF assay of Example 5; read-out: IC50 against K-Ras G12D
T1 construct: made in house; host or cells: E. coli BL21 (DE3)
How it was run: (§1)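 Buffer about 5 mM HEPES pH 7.4 with ~150 mM NaCl, ~1 mM DTT, 0.05% BSA, 0.0025% (v/v) Igepal. Protein constructs used at molarity matching the IC50 range studied (e.g. ~500 nM). FRET between tagged K-Ras and hSOS1 measured after short incubation.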

K-Ras G12S = molecular target: T2, K-Ras G12S (Homo sapiens, UniProt P01116, G12S); assay: HTRF resonance energy transfer assay, K-Ras G12S / SOS1 interaction; assay type: biochemical; settings: HTRF assay of Example 5; read-out: IC50 against K-Ras G12S
T2 construct: made in house; host or cells: E. coli BL21 (DE3)
T2 sequence (P01116 1-188 isoform P01116-2 G12S): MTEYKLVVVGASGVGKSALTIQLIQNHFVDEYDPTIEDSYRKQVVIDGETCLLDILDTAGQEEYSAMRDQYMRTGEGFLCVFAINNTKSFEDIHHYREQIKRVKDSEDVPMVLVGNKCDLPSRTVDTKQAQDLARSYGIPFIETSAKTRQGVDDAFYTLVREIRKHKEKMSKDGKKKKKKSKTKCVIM
How it was run: as §1

K-Ras G12V = molecular target: T3, K-Ras G12V (Homo sapiens, UniProt P01116, G12V); assay: HTRF resonance energy transfer assay, K-Ras G12V / SOS1 interaction; assay type: biochemical; settings: HTRF assay of Example 5; read-out: IC50 against K-Ras G12V
T3 construct: made in house; host or cells: E. coli BL21 (DE3)
T3 sequence (P01116 1-188 isoform P01116-2 G12V): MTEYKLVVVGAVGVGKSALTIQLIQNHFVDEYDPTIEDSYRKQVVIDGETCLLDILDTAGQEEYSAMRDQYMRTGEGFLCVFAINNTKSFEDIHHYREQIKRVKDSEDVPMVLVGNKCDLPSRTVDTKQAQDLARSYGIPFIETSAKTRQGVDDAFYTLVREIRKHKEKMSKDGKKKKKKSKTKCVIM
How it was run: as §1

K-Ras WT = molecular target: T4, K-Ras WT (Homo sapiens, UniProt P01116); assay: HTRF resonance energy transfer assay, K-Ras WT / SOS1 interaction; assay type: biochemical; settings: HTRF assay of Example 5; read-out: IC50 against K-Ras WT
T4 construct: made in house; host or cells: E. coli BL21 (DE3)
T4 sequence (P01116 1-188 isoform P01116-2): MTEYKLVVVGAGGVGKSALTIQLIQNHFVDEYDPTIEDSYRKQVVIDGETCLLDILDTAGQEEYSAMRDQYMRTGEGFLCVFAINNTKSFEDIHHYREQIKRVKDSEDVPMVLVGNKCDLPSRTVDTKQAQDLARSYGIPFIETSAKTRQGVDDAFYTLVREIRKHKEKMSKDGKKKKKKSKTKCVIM
How it was run: as §1

GP2D cells = assay: Ras cellular assay, growth of cells with K-Ras G12D mutation (CellTiter-Glo); assay type: cell-based; settings: cell growth, Example 9, G12D mutation, read-out: IC50 against GP2D cells
A549 cells = assay: Ras cellular assay, growth of cells with K-Ras G12S mutation (CellTiter-Glo); assay type: cell-based; settings: Homo sapiens, cell growth, Example 9, G12S mutation, read-out: IC50 against A549 cells
How it was run: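 Growth inhibition IC50 values come from four-parameter fits of CellTiter-Glo luminescence, read about 6 days after compound addition. G12S-mutant A549 cells (e.g. 800/well, RPMI-1640 + 10% heat-inactivated FBS) were plated in tissue-culture-treated or ultra-low-attachment 384-well format. Dosing began the following day with serial dilutions, e.g. 10 points, 3-fold.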

SW620 cells = assay: Ras cellular assay, growth of cells with K-Ras G12V mutation (CellTiter-Glo); assay type: cell-based; settings: Homo sapiens, SW-620; cell growth, Example 9, G12V mutation; read-out: IC50 against SW620 cells
How it was run: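 IC50 values came from a four-parameter fit of CellTiter-Glo viability, read roughly 6 days after dosing with e.g. a 10-point threefold dilution series. G12V-mutant SW620 cells (e.g. 800 per well) had been plated the previous day in RPMI-1640/10% heat-inactivated FBS, on tissue culture-treated or ultra-low attachment plates.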

T1 sequence (P01116 1-188 isoform P01116-2 G12D): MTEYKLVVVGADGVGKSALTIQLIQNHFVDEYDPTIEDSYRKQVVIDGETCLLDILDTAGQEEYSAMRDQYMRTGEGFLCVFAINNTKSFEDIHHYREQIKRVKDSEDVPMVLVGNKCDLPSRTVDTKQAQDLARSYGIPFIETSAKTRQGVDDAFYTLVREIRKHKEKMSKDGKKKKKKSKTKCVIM

| SMILES | IC50 (K-Ras G12D) | IC50 (K-Ras G12S) | IC50 (K-Ras G12V) | IC50 (K-Ras WT) | IC50 (A549 cells) | IC50 (SW620 cells) | IC50 (GP2D cells) |
| --- | --- | --- | --- | --- | --- | --- | --- |
| COC1(C)CC(N2CCOc3c(Cl)c(-c4ccc(F)c5sc(N)c(C#N)c45)c(F)c4nc(OC[C@@]56CCCN5C[C@H](F)C6)nc2c34)C1 (stereo partly drawn) [Compound 737, 2-amino-4-(8-chloro-10-fluoro-2-(((2R,7aS)-2-fluorotetrahydro-1H-pyrrolizin-7a(5H)-yl)methoxy)-4-(3-methoxy-3-methylcyclobutyl)-5,6-dihydro-4H-[1,4]oxazepino[5,6,7-de]quinazolin-9-yl)-7-fluorobenzo[b]thiophene-3-carbonitrile] | < 100 nM | < 100 nM | < 100 nM | < 100 nM | < 5000 nM | < 5000 nM | < 500 nM |
| CC(C)N1CCOc2c(Cl)c(-c3ccc(F)c4sc(N)c(C#N)c34)c(F)c3nc(OC[C@@]45CCCN4C[C@H](F)C5)nc1c23 [Compound 1025, 2-amino-4-(8-chloro-10-fluoro-2-(((2R,7aS)-2-fluorotetrahydro-1H-pyrrolizin-7a(5H)-yl)methoxy)-4-isopropyl-5,6-dihydro-4H-[1,4]oxazepino[5,6,7-de]quinazolin-9-yl)-7-fluorobenzo[b]thiophene-3-carbonitrile] | < 100 nM | < 100 nM | < 100 nM | < 100 nM | < 5000 nM | < 5000 nM | < 500 nM |
| N#Cc1c(N)sc2c(F)ccc(-c3c(Cl)c4c5c(nc(OC[C@@]67CCCN6C[C@H](F)C7)nc5c3F)N(CC(F)F)C(CC(F)F)CO4)c12 (stereo partly drawn) [Compound 701, 2-amino-4-(8-chloro-4,5-bis(2,2-difluoroethyl)-10-fluoro-2-(((2R,7aS)-2-fluorotetrahydro-1H-pyrrolizin-7a(5H)-yl)methoxy)-5,6-dihydro-4H-[1,4]oxazepino[5,6,7-de]quinazolin-9-yl)-7-fluorobenzo[b]thiophene-3-carbonitrile] | < 100 nM | < 100 nM | < 100 nM | < 100 nM | < 5000 nM | < 5000 nM | < 500 nM |
| CN(CCN1CCOc2c(Cl)c(-c3ccc(F)c4sc(N)c(C#N)c34)c(F)c3nc(OC[C@@]45CCCN4C[C@H](F)C5)nc1c23)C(=O)C(F)F [Compound 1127, N-(2-(9-(2-amino-3-cyano-7-fluorobenzo[b]thiophen-4-yl)-8-chloro-10-fluoro-2-(((2R,7aS)-2-fluorotetrahydro-1H-pyrrolizin-7a(5H)-yl)methoxy)-5,6-dihydro-4H-[1,4]oxazepino[5,6,7-de]quinazolin-4-yl)ethyl)-2,2-difluoro-N-methylacetamide] | < 100 nM | < 100 nM | < 100 nM | < 100 nM | < 5000 nM | < 5000 nM | < 500 nM |
| N#Cc1c(N)sc2c(F)ccc(-c3c(Cl)c4c5c(nc(OC[C@@]67CCCN6C[C@H](F)C7)nc5c3F)N(C3CCN(C(=O)C[C@@H]5CCOC5)C3)CCO4)c12 (stereo partly drawn) [Compound 699, 2-amino-4-(8-chloro-10-fluoro-2-(((2R,7aS)-2-fluorotetrahydro-1H-pyrrolizin-7a(5H)-yl)methoxy)-4-(1-(2-((S)-tetrahydrofuran-3-yl)acetyl)pyrrolidin-3-yl)-5,6-dihydro-4H-[1,4]oxazepino[5,6,7-de]quinazolin-9-yl)-7-fluorobenzo[b]thiophene-3-carbonitrile] | < 100 nM | < 100 nM | < 100 nM | < 100 nM | < 5000 nM | < 5000 nM | < 500 nM |
| N#Cc1c(N)sc2c(F)ccc(-c3c(Cl)c4c5c(nc(OC[C@@]67CCCN6C[C@H](F)C7)nc5c3F)N([C@@H]3CCOC3)CCO4)c12 [Compound 617, 2-amino-4-(8-chloro-10-fluoro-2-(((2R,7aS)-2-fluorotetrahydro-1H-pyrrolizin-7a(5H)-yl)methoxy)-4-((R)-tetrahydrofuran-3-yl)-5,6-dihydro-4H-[1,4]oxazepino[5,6,7-de]quinazolin-9-yl)-7-fluorobenzo[b]thiophene-3-carbonitrile] | < 100 nM | < 100 nM | < 100 nM | < 100 nM | < 5000 nM | < 5000 nM | < 500 nM |
| CC(C)[C@H]1COc2c(Cl)c(-c3ccc(F)c4sc(N)c(C#N)c34)c(F)c3nc(OC[C@@]45CCCN4C[C@H](F)C5)nc(c23)N1CC(F)F [Compound 884, 2-amino-4-((5S)-8-chloro-4-(2,2-difluoroethyl)-10-fluoro-2-(((2R,7aS)-2-fluorotetrahydro-1H-pyrrolizin-7a(5H)-yl)methoxy)-5-isopropyl-5,6-dihydro-4H-[1,4]oxazepino[5,6,7-de]quinazolin-9-yl)-7-fluorobenzo[b]thiophene-3-carbonitrile] | < 100 nM | < 100 nM | < 100 nM | < 100 nM | < 5000 nM | < 5000 nM | < 500 nM |
| N#Cc1c(N)sc2c(F)ccc(-c3c(Cl)c4c5c(nc(OC[C@@]67CCCN6C[C@H](F)C7)nc5c3F)N(CC3(O)CC3)CCO4)c12 [Compound 868, 2-amino-4-(8-chloro-10-fluoro-2-(((2R,7aS)-2-fluorotetrahydro-1H-pyrrolizin-7a(5H)-yl)methoxy)-4-((1-hydroxycyclopropyl)methyl)-5,6-dihydro-4H-[1,4]oxazepino[5,6,7-de]quinazolin-9-yl)-7-fluorobenzo[b]thiophene-3-carbonitrile] | < 100 nM | < 100 nM | < 100 nM | < 100 nM | < 5000 nM | < 5000 nM | < 500 nM |

Further lines, with some results ahead:

| IC50 (K-Ras G12D) | IC50 (K-Ras G12S) | IC50 (K-Ras G12V) | IC50 (K-Ras WT) | IC50 (A549 cells) | IC50 (SW620 cells) | SMILES | IC50 (GP2D cells) |
| --- | --- | --- | --- | --- | --- | --- | --- |
| < 100 nM | < 100 nM | < 100 nM | < 100 nM | < 5000 nM | < 5000 nM | CO[C@H](C)C(=O)N1CCC(N2CCOc3c(Cl)c(-c4ccc(F)c5sc(N)c(C#N)c45)c(F)c4nc(OC[C@@]56CCCN5C[C@H](F)C6)nc2c34)C1 (stereo partly drawn) [Compound 1110, 2-amino-4-(8-chloro-10-fluoro-2-(((2R,7aS)-2-fluorotetrahydro-1H-pyrrolizin-7a(5H)-yl)methoxy)-4-(1-((R)-2-methoxypropanoyl)pyrrolidin-3-yl)-5,6-dihydro-4H-[1,4]oxazepino[5,6,7-de]quinazolin-9-yl)-7-fluorobenzo[b]thiophene-3-carbonitrile] | < 500 nM |
| < 100 nM | < 100 nM | < 100 nM | < 100 nM | < 5000 nM | < 5000 nM | C[C@H](O)[C@H]1COc2c(Cl)c(-c3ccc(F)c4sc(N)c(C#N)c34)c(F)c3nc(OC[C@@]45CCCN4C[C@H](F)C5)nc(c23)N1CCC(F)F [Compound 954, 2-amino-4-((5R)-8-chloro-4-(3,3-difluoropropyl)-10-fluoro-2-(((2R,7aS)-2-fluorotetrahydro-1H-pyrrolizin-7a(5H)-yl)methoxy)-5-((S)-1-hydroxyethyl)-5,6-dihydro-4H-[1,4]oxazepino[5,6,7-de]quinazolin-9-yl)-7-fluorobenzo[b]thiophene-3-carbonitrile] | < 500 nM |
| < 100 nM | < 100 nM | < 100 nM | < 100 nM | < 5000 nM | < 5000 nM | CN(C)CCCN1CCOc2c(Cl)c(-c3ccc(F)c4sc(N)c(C#N)c34)c(F)c3nc(OC[C@@]45CCCN4C[C@H](F)C5)nc1c23 [Compound 1020, 2-amino-4-(8-chloro-4-(3-(dimethylamino)propyl)-10-fluoro-2-(((2R,7aS)-2-fluorotetrahydro-1H-pyrrolizin-7a(5H)-yl)methoxy)-5,6-dihydro-4H-[1,4]oxazepino[5,6,7-de]quinazolin-9-yl)-7-fluorobenzo[b]thiophene-3-carbonitrile] | < 500 nM |
| < 100 nM | < 100 nM | < 100 nM | < 100 nM | < 5000 nM | < 5000 nM | N#Cc1c(N)sc2c(F)ccc(-c3c(Cl)c4c5c(nc(OC[C@@]67CCCN6C[C@H](F)C7)nc5c3F)N(CC(F)F)[C@@H](CN)CO4)c12 [Compound 914, 2-amino-4-((5S)-5-(aminomethyl)-8-chloro-4-(2,2-difluoroethyl)-10-fluoro-2-(((2R,7aS)-2-fluorotetrahydro-1H-pyrrolizin-7a(5H)-yl)methoxy)-5,6-dihydro-4H-[1,4]oxazepino[5,6,7-de]quinazolin-9-yl)-7-fluorobenzo[b]thiophene-3-carbonitrile] | < 500 nM |
